Test results from ChEMBL document CHEMBL3301562, “MMV Box screening against Plasmodium falciparum protein kinases and aminoacyl tRNA synthetases”.

Legend:
Assay type in all cases: functional
Proline--tRNA ligase = biological target: T1, Proline--tRNA ligase (Plasmodium falciparum (isolate 3D7), UniProt Q8I5R7); assay: MMV: ProRS recombinant Plasmodium falciparum Prolyl-tRNA-synthetase, assay with yeast tRNA, ATP, and proline and 3 uM MMV malaria box compound, assay read out with kinase glo as % inhibition.
T1 sequence (Q8I5R7 whole entry): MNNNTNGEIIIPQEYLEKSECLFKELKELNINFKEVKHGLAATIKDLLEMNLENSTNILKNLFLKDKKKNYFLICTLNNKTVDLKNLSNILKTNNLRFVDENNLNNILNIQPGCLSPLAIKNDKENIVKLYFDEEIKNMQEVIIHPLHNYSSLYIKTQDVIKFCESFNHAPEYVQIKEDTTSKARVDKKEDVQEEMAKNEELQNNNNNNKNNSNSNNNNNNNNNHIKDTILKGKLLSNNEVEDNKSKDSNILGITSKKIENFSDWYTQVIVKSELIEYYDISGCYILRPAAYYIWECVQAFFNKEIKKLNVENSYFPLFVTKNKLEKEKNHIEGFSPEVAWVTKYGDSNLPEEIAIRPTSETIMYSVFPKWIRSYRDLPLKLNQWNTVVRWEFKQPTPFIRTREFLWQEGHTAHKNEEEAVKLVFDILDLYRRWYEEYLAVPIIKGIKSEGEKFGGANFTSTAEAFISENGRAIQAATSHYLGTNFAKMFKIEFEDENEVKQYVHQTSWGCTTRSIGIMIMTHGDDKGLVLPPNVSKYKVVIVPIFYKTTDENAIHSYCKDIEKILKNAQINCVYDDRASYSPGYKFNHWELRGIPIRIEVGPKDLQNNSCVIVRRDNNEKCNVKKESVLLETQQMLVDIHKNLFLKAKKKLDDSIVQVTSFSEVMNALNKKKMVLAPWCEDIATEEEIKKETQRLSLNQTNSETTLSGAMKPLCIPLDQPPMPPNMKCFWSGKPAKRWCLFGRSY

[1] = biological target: T2, Putative uncharacterized protein pk7 (Plasmodium falciparum, UniProt O96214); assay: Final concentrations were 1 uM ATP, 2 mM DTT, 20 mM MgCl2, 2 mM MnCl2, 0.01% BSA, and 6 ug/ml PK7, in a buffer of 20 mM Tris-HCl (pH 7.5). The enzyme itself was the only substrate present (since autophosphorylation occurs); 100 uM 1NA-PP1 was used as a control inhibitor. Incubation time was 3 hours.
T2 sequence (O96214 whole entry): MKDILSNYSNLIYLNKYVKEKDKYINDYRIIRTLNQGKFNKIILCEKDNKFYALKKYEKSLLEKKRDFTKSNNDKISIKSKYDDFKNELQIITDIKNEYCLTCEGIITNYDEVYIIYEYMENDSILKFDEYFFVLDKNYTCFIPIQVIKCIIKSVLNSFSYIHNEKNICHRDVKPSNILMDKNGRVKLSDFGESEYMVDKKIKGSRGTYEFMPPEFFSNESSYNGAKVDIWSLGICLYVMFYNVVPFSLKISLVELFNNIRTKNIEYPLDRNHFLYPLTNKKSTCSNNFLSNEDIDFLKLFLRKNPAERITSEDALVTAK

[2] = biological target: T3, Mitogen-activated protein kinase (Plasmodium falciparum, UniProt Q25917); assay: Final concentrations were 1 uM ATP, 0.5 mM DTT, 1 mM MgCl2, 0.5 mg/mL BSA, and 10 ug/ml MAP2 in a buffer of 50 mM HEPES (pH 7.0). 0.5 mg/mL histone III-S served as the substrate (13); 100 uM AMP-PNP, an ATP analog, was used as a control inhibitor. Incubation time was 4 hours.
T3 sequence (Q25917 whole entry): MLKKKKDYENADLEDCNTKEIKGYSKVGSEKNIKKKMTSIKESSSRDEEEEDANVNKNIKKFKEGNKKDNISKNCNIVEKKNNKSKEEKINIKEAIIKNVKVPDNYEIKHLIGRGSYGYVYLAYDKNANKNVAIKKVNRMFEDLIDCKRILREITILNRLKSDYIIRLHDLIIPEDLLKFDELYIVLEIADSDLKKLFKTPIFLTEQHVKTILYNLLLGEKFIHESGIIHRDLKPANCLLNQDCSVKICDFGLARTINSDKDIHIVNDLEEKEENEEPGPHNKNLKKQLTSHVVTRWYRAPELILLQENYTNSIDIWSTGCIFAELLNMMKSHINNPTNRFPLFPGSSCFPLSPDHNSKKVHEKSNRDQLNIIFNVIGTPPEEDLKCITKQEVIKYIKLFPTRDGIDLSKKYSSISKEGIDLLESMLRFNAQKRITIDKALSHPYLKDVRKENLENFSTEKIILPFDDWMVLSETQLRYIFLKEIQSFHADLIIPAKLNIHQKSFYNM

[3] = biological target: T4, Calcium-dependent protein kinase 4 (Plasmodium falciparum (isolate 3D7), UniProt Q8IBS5); assay: MMV: CDPK4 Protein kinase inhibition assay using recombinant PfCDPK4, syntide2 peptide substrate, ATP and KinaseGlo to measure % inhibition at 1 uM MMV box compound.
T4 sequence (Q8IBS5 whole entry): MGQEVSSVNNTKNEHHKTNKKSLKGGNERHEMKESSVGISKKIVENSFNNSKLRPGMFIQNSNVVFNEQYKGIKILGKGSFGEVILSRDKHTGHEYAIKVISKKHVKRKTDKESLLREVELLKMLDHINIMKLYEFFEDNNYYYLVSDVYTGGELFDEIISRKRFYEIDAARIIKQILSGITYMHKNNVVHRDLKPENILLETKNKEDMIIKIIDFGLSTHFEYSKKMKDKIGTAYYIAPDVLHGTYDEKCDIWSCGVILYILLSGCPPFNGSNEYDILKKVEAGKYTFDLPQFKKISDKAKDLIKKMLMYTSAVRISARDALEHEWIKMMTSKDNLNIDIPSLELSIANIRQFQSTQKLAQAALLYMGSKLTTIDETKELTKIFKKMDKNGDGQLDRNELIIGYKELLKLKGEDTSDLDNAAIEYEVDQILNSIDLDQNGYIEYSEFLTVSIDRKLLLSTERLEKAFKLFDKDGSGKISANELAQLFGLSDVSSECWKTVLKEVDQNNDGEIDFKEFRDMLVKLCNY

Lysine--tRNA ligase = Lysine--tRNA ligase (Plasmodium falciparum (isolate 3D7), UniProt Q8IDJ8); assay: MMV: KRS recombinant Plasmodium falciparum Lysyl-tRNA-synthetase, assay with yeast tRNA, ATP, and lysine and 3 uM MMV malaria box compound, assay read out with kinase glo as % inhibition.
Chain of Lysine--tRNA ligase (Q8IDJ8 whole entry): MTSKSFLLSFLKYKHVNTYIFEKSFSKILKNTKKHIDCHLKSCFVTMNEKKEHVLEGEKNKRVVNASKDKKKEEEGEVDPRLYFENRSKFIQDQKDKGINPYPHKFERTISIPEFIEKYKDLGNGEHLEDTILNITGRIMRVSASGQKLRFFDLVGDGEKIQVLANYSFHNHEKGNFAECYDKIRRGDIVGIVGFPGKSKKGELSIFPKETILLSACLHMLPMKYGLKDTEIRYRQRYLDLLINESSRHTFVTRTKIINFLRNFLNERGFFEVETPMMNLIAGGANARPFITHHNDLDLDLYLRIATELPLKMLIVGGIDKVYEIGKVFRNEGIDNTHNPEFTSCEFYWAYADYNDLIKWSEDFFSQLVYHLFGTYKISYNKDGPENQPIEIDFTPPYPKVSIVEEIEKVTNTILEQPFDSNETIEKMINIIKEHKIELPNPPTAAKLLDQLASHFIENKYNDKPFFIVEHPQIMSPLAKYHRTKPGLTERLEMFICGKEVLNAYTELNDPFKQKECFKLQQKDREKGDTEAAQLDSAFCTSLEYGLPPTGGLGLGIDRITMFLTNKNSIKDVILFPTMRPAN

[4] = biological target: T5, Cdk-related protein kinase 6 (Plasmodium falciparum, UniProt O77239); assay: Final concentrations were 1.5 uM ATP, 5 mM MnCl2, and 15 ug/ml PK6 in a buffer of 100 mM Tris-HCl (pH 7.5). 50 ug/mL MBP was provided as the substrate; 10 uM staurosporine was used as a control inhibitor. Incubation time was 3 hours and 40 minutes.The catalytic activity of each kinase was considered proportional to ATP consumed, as determined from measurements of residual [ATP] with the luciferase-based reagent Kinase-Glo (Promega) following incubation. Luminescence (proportional to residual [ATP]) was measured on the plate readers FLx800 (BioTek Instruments, Winooski, VT, USA) and MicroBeta2.
T5 sequence (O77239 whole entry): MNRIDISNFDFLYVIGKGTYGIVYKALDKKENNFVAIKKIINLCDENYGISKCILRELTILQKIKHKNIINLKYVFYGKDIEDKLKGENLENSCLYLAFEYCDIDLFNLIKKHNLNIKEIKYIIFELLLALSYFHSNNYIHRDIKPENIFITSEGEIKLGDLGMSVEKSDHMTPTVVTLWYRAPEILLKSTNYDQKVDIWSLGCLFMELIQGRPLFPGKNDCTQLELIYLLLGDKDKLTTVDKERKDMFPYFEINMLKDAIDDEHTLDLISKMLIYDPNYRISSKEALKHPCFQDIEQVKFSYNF

[5] = biological target: Calcium-dependent protein kinase 1 (Plasmodium falciparum, UniProt P62344); assay: MMV: CDPK1 Protein kinase inhibition assay using recombinant PfCDPK1, syntide 2 peptide substrate, ATP and KinaseGlo to measure % inhibition at 1 uM MMV box compound.
Chain of Calcium-dependent protein kinase 1 (P62344 whole entry): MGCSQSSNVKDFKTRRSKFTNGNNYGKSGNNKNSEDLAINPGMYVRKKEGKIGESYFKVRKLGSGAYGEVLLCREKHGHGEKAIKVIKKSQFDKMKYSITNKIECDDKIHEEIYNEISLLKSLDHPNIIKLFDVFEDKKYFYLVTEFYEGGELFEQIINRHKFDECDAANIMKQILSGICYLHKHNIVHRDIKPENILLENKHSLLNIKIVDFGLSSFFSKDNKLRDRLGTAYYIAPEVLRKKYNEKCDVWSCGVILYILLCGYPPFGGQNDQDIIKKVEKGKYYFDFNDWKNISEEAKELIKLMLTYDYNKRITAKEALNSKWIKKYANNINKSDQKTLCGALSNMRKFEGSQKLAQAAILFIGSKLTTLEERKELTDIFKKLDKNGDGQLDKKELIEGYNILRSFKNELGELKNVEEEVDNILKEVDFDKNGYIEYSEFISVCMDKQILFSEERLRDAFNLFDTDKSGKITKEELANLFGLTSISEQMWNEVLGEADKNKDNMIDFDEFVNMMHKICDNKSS

SMILES	IC50 (Proline--tRNA ligase) [nM]	IC50 [1] [nM]	IC50 [2] [nM]	IC50 [3] [nM]	IC50 (Lysine--tRNA ligase) [nM]	IC50 [4] [nM]	IC50 [5] [nM]
O=C1c2ccccc2-c2nnc(-c3ccc(Br)cc3)cc21	> 2500	> 1000	> 1000	> 1000	> 2500	> 1000	> 1000
Cc1nc2ccccc2c(O)c1CC=C(Cl)Cl	> 2500	> 1000	> 1000	> 1000	> 2500	> 1000	> 1000
O=c1nc(C=Cc2ccc(Br)cc2)oc2ccccc12	> 2500	> 1000	> 1000	700	> 2500	> 1000	> 1000
COc1ccc2nc(N)nc(C)c2c1	> 2500	> 1000	> 1000	> 1000	> 2500	> 1000	> 1000
COc1ccc(C(=O)NC(c2ccc(Cl)cc2Cl)c2cc(Cl)c3cccnc3c2O)cc1 (configuration not stated)	> 2500	> 1000	> 1000	> 1000	> 2500	> 1000	> 1000
O=C(NCCCN1CCC(N2CCCCC2)CC1)C1=Cc2cc(Br)ccc2OC1	> 2500	> 1000	> 1000	> 1000	> 2500	> 1000	> 1000
CCOC(=O)c1cnc2ccc(Cl)cc2c1NCCCN(C)C	> 2500	> 1000	> 1000	> 1000	> 2500	> 1000	> 1000
O=C1c2ccccc2C2=Nc3ccccc3SC(c3cccc(F)c3)C12 (configuration not stated)	> 2500	> 1000	> 1000	> 1000	> 2500	> 1000	> 1000
Cc1ccccc1OCCSc1nc2ccc(NC(=O)c3ccccc3)cc2s1	> 2500	> 1000	> 1000	> 1000	> 2500	> 1000	> 1000
CC(C)(C)c1ccc(C(=O)Nc2c3c(nn2-c2cccc(Cl)c2)CSC3)cc1	> 2500	> 1000	> 1000	> 1000	> 2500	> 1000	> 1000
CCOc1cc2c(cc1OCC)C(c1cc(Cl)c(O)c(OCC)c1)NCC2 (configuration not stated)	> 2500	> 1000	> 1000	> 1000	> 2500	> 1000	> 1000
COc1ccc(N2CCN(C(CNC(=O)CC(C)(C)C)c3ccc4c(c3)OCO4)CC2)cc1 (configuration not stated)	> 2500	> 1000	> 1000	> 1000	> 2500	> 1000	> 1000
CCCCCCn1c(=N)n(CC(O)COc2cccc(C)c2)c2ccccc21 (configuration not stated)	> 2500	> 1000	> 1000	> 1000	> 2500	> 1000	> 1000
Oc1ccc(C(=C(Cl)Cl)c2ccc(O)cc2)cc1	> 2500	> 1000	> 1000	> 1000	> 2500	> 1000	> 1000
COc1ccc(OC)c(C2C3=C(CC(C)(C)CC3=O)N(c3ccc(Cl)c(Cl)c3)C3=C2C(=O)CC(C)(C)C3)c1	> 2500	> 1000	> 1000	> 1000	> 2500	> 1000	> 1000
COc1ccc(CN2CCN(Cc3ccccc3)CC2)c(O)c1	> 2500	> 1000	> 1000	> 1000	> 2500	> 1000	> 1000
OC(CNCc1ccccc1)Cn1c2ccccc2c2ccccc21 (configuration not stated)	> 2500	> 1000	> 1000	> 1000	> 2500	> 1000	> 1000
OC1CCCCC1C1(NC(=S)Nc2ccccc2)CCCCC1 (configuration not stated)	> 2500	> 1000	> 1000	> 1000	> 2500	> 1000	> 1000
OC1=C2C(=Nc3ccccc3SC2c2ccc(Br)cc2)c2ccccc21 (configuration not stated)	> 2500	> 1000	> 1000	> 1000	> 2500	> 1000	> 1000
COc1ccc(C(=O)C2CC2c2ccc(Cl)cc2)cc1 (configuration not stated)	> 2500	> 1000	> 1000	> 1000	> 2500	> 1000	> 1000
CCN1CCN(c2c(C(=O)c3ccccc3)cnc3cc(OC)c(OC)cc23)CC1	> 2500	> 1000	> 1000	> 1000	> 2500	> 1000	> 1000
